Key:
[1] = system: Paracoccus sp. strain Y-1071; experiment: Glutamate supplementation, test tube culture (Pharmamedia medium), carotenoid by HPLC; type: cell-based
Experimental: (§1) In the examples, carotenoids were quantified by high performance liquid chromatography (HPLC) as follows.
(§2) Two columns of Wakosil-II 5 SIL-100 (φ4.6×250 mm) (Wako Pure Chemical Industries, Ltd., Japan) were connected to each other for use as a column. Elution was performed by flowing an n-hexane-tetrahydrofuran-methanol mixed solution (40:20:1), which was a mobile phase, at a flow rate of 1.0 mL/minute at a constant temperature around room temperature. The measurement was performed as follows. Samples were each dissolved in tetrahydrofuran and then diluted 100-fold with the mobile phase. Each dilution was injected in a volume of 20 μL. The column eluate was detected at a wavelength of 470 nm. As a reference for quantification, astaxanthin (SIGMA, Cat. No. A9335) was used. The astaxanthin concentration of the reference solution was determined using the following equation after measuring the absorbance (A) of the reference solution at 477 nm and the area percentage % (B) of the astaxanthin peak at the time of HPLC analysis under the above conditions.
Next, a medium of the following composition (sucrose 30 g/L, Pharmamedia 20 g/L, ammonium sulfate 1.5 g/L, potassium dihydrogenphosphate 1.5 g/L, disodium hydrogenphosphate 12-hydrate 3.8 g/L, calcium chloride dihydrate 0.1 g/L, magnesium sulfate 7-hydrate 4.5 g/L, iron sulfate 7-hydrate 5 g/L, biotin 1 mg/L, silicon-based defoaming agent 1 g/L) was dispensed in 8 ml volumes into cotton-plugged test tubes having an inner diameter of 18 mm (2 tubes in total). One of the tubes was supplemented with monosodium L-glutamate monohydrate to 30 mmol/L, while the other was supplemented with nothing as a control.
The resulting culture solution was then inoculated in 0.1 ml volumes into the two test tube media and cultured with shaking at 28° C. for 4 days at 300 spm.
Each culture solution was measured for its carotenoid concentration by HPLC.

[2] = system: Paracoccus sp. strain A-581-1 (FERM BP-4671); experiment: Glutamate supplementation, 5 L fermentation tank culture, carotenoid by HPLC; type: cell-based
Experimental: as §1
as §2, with “conditions. Astaxanthin concentration (mg/L)=A/2150×B×100” for “conditions.”
A medium of the following composition (sucrose 20 g/L, filtered corn steep liquor 5 g/L, potassium dihydrogenphosphate 0.54 g/L, dipotassium hydrogenphosphate 12-hydrate 2.78 g/L, calcium chloride dihydrate 5.0 g/L, magnesium sulfate 7-hydrate 0.7 g/L, iron sulfate 7-hydrate 3.0 g/L, alcohol-based […] agent 0.2 g/L, pH 7.5) was dispensed in 100 ml volumes into 500 mL cotton-plugged Erlenmeyer flasks and sterilized in an autoclave at 121° C., for 15 minutes to prepare a flask medium for seed culture in 2 flasks.
Next, a medium of the following composition (glucose 40 g/L, corn steep liquor 30 g/L, ammonium sulfate 0.5 g/L, potassium dihydrogenphosphate 2.25 g/L, disodium hydrogenphosphate 12-hydrate 5.7 g/L, calcium chloride dihydrate […], magnesium sulfate 7-hydrate 0.5 g/L, iron sulfate 7-hydrate 5 g/L, alcohol-based defoaming agent 0.5 g/L) was dispensed in 2.0 L volumes into 5 L fermentation tanks (2 tanks in total). One of the fermentation tanks was supplemented with monosodium L-glutamate monohydrate to 15 mmol/L, while the other was supplemented with nothing as a control. These fermentation tanks were sterilized in an autoclave at 121° C. for 30 minutes.
A loopful of Paracoccus sp. strain A-581-1 (FERM BP-4671) was inoculated into the flask medium for seed culture and then cultured with rotary shaking at 27° C. for 2 days at 150 rpm. The resulting culture solution was then inoculated in 90 mL volumes into the individual fermentation tanks, followed by aerobic culture at 27° C. at an aeration volume of 1 vvm for 100 hours. To maintain a pH of 7.1 during culture, the pH was continuously controlled with 20% aqueous sodium hydroxide. Glucose was added in an amount of 30 g on […] day 2 of culture to prevent glucose depletion. At 22 and 29 hours of culture, monosodium L-glutamate monohydrate and ammonium sulfate were added in amounts of 5 g and 3 g, respectively, per liter of the initial medium. The minimum number of agitation rotations was set to 100 rpm, and the number of agitation rotations was varied such that the dissolved oxygen concentration in the culture solution was maintained at 2 to 4 ppm. An alcohol-based defoaming agent was added in an amount of 0.1 g per hour to prevent bubble formation,
At the completion of culture, each culture solution was measured for its carotenoid concentration by HPLC.

[3] = Glutamic acid concentration 30 mmol/L, 28° C. for 4 days
[4] = Glutamic acid concentration 15 mmol/L, 100 hours

`N[C@@H](CCC(=O)O)C(=O)O` [Glutamic acid, glutamic acid] was tested. Which “produced carotenoid concentration compared to the sample without glutamic acid” value ([1]; 30 mmol/L) did it give?
The value was “higher produced carotenoid concentration”.

What about the 3-Hydroxyechinenone [1, 3] of the same molecule?
Its 3-Hydroxyechinenone is 0.7 mg/L.

And the Adonixanthin [1, 3]?
Its Adonixanthin is 18.4 mg/L.

What about the Astaxanthin [1, 3] of the same molecule?
The Astaxanthin was 94.8 mg/L.

What about the Asteroidenone [1, 3] of the same molecule?
Its Asteroidenone is 1.5 mg/L.

And the Canthaxanthin [1, 3]?
Its Canthaxanthin is 10.0 mg/L.

And the Echinenone [1, 3]?
The Echinenone was 6.5 mg/L.

What about the Phoenicoxanthin [1, 3] of the same molecule?
The Phoenicoxanthin was 24.8 mg/L.

And the “Total carotenoid” value [1, 3]?
The value was 170.2 mg/L.

And the Zeaxanthin [1, 3]?
The Zeaxanthin was 0.28 mg/L.

And the β-Carotene [1, 3]?
Its β-Carotene is 13.1 mg/L.

And the β-Cryptoxanthin [1, 3]?
Its β-Cryptoxanthin is 0.10 mg/L.

And the “produced carotenoid concentration compared to the sample without glutamic acid” value ([2]; 15 mmol/L)?
Its value is “higher produced carotenoid concentration”.

And the 3-Hydroxyechinenone [2, 4]?
Its 3-Hydroxyechinenone is 0.05 mg/L.

What about the Adonixanthin [2, 4] of the same molecule?
The Adonixanthin was 2.10 mg/L.

What about the Astaxanthin [2, 4] of the same molecule?
Its Astaxanthin is 5.97 mg/L.

What about the Asteroidenone [2, 4] of the same molecule?
Its Asteroidenone is 0.02 mg/L.

What about the Canthaxanthin [2, 4] of the same molecule?
The Canthaxanthin was 1.22 mg/L.

And the Echinenone [2, 4]?
Its Echinenone is 0.51 mg/L.

And the Phoenicoxanthin [2, 4]?
The Phoenicoxanthin was 2.01 mg/L.

What about the “Total carotenoid” value [2, 4] of the same molecule?
Its value is 13.68 mg/L.

And the Zeaxanthin [2, 4]?
Its Zeaxanthin is 0.03 mg/L.

And the β-Carotene [2, 4]?
The β-Carotene was 1.76 mg/L.

And the β-Cryptoxanthin [2, 4]?
Its β-Cryptoxanthin is 0.01 mg/L.

Reference: US8993282B2, “Carotenoid fermentation method” (JX Nippon Oil & Energy Corporation, priority 2008, dated 2015)
